The results in this text go back to US20120225862A1, “HETEROARYL BENZAMIDES, COMPOSITIONS AND METHODS OF USE” (AUCKLAND UNIVSERVICES LIMITED, priority 2009, published 2012).

Experiment [1] deals with RCC4. Kind of experiment: XTT IC50 / viability assay, RCC4 cells. In kind it is cell-based, human. Put shortly: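 RCC4 parental and VHL-reintroduced RCC4/VHL cells (DMEM, 10% FCS) treated with serially diluted drug for four days. Viability by XTT (0.3 mg/mL) with N-methyl dibenzopyrazine methyl sulfate, 1–2 h at 37 °C, absorbance 450 nm; IC50 by linear interpolation.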
(Formazan colour is commonly taken as a measure of viable cells.)

Experiment [2] has as its system RCC4. Kind of experiment: 3H-2-deoxyglucose uptake, RCC4. In kind it is cell-based, human. The protocol:
One hundred thousand cells were plated into 6-well plates. The following day, the cells were treated with vehicle or drug and incubated for the indicated time. Cells were washed twice in phosphate buffered saline and low glucose media was added for 30 minutes. Cells were then incubated with 0.5 microCi of tritiated-2-deoxyglucose and incubated for an hour at 37° C. Cells were washed twice in PBS and then lysed in 0.2 N NaOH and 0.2% SDS. Lysates were transferred to scintillation tubes with scintillation fluid and quantified by scintillation counter.
One hundred thousand cells were plated per well in a six-well plate. The next day, cells were treated with the indicated concentration of drug and incubated for the indicated time. Cells were then washed twice with phosphate-buffered saline, incubated in low-glucose medium for 30 minutes, and ^3H-2-deoxyglucose (0.5 μCi) was added in 1 ml of glucose-free media for an additional hour. Cells were washed twice in PBS and lysed (0.2 N NaOH and 0.2% sodium dodecyl sulfate). Glucose uptake was quantified with a scintillation counter.

The next experiment deals with T1, CHK1 (Homo sapiens, UniProt O14757).
T1 construct: purchased Millipore (KinaseProfiler service)
T1 sequence (O14757 whole entry, species assumed): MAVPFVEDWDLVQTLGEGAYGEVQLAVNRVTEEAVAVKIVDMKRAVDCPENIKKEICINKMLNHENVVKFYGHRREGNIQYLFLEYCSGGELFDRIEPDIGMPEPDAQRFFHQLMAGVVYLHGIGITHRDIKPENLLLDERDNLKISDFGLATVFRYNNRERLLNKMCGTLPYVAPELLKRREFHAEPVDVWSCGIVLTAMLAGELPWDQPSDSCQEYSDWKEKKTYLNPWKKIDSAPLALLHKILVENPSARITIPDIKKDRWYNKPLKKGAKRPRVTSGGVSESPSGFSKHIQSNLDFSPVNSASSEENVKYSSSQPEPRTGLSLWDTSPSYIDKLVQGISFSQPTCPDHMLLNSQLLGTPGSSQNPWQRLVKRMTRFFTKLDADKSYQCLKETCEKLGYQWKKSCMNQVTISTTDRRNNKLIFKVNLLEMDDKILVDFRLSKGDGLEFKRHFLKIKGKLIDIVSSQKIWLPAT
As to the kind of experiment: In vitro kinase activity (Millipore KinaseProfiler): CHK1. In kind it is biochemical. Particulars: no head or unit printed. On the procedure:
(§1) All cells were grown in DMEM+10% FCS. ACHN and ACHN shVHL were a kind gift from George V. Thomas (UCLA). HIF overexpressing clones were described previously. Transfection of RNA oligos were performed with DnarmaFECT Reagent 1 (Dharmcon), according to manufacturer's directions. ON-TARGETplus SMART pools against HIF-1β/ARNT were purchased from Dharmacon. Glut1 was detected with anti-GLUT1 antibody from NeoMarkers/LabVision/Fisher. Pyruvate/lactate levels and hexokinase activity were both measured by fluorometric assay (BioVision and Sigma-Aldrich, respectively). ATP levels were measured by bioluminescence assay (ATP Determination Kit from Molecular Probes/Invitrogen). In vitro kinase activities were performed by Millipore KinaseProfiler. Affi-Gel 10 (BioRad) activated affinity media was coupled to analogs to generate immobilized affinity linkers.
(§2) We next wanted to investigate the differential glucose uptake between RCCs with and without VHL treated with compound 47 that subsequently lead to the selective death of VHL-deficient cells. We first examined the message levels of the two main glucose transporters, GLUT1 and GLUT2 by quantitative real-time PCR. GLUT1 is an inducible, high-affinity glucose transporter, while GLUT2 is the glucose transporter responsible for basal glucose uptake. […] Cells deficient in VHL had very low levels of GLUT2 that could barely be detected (FIG. 3J). […]

Another experiment deals with T2, GSK3α (Homo sapiens, UniProt P49840).
T2 construct: purchased Millipore (KinaseProfiler service)
T2 sequence (P49840 whole entry, species assumed): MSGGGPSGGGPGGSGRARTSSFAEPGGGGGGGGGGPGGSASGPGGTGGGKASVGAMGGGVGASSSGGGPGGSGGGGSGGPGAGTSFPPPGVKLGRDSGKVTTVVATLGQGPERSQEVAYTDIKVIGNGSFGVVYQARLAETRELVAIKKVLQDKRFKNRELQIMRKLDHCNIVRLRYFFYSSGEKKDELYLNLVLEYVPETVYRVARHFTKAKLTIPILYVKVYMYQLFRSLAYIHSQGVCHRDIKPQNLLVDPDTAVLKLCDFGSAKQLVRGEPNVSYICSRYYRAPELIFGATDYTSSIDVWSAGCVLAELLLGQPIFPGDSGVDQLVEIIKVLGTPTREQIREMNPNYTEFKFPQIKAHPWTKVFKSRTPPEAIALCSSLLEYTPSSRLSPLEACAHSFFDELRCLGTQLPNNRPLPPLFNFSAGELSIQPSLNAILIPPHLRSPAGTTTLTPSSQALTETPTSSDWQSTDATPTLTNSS
Kind of experiment: In vitro kinase activity (Millipore KinaseProfiler): GSK3α. Particulars: no head or unit printed. In kind it is biochemical. The protocol:
as §1, §2

In a further experiment the target is T3, MKK4 (Mus musculus, UniProt P47809).
T3 construct: purchased Millipore (KinaseProfiler service)
T3 sequence (P47809 2-397 limits assumed): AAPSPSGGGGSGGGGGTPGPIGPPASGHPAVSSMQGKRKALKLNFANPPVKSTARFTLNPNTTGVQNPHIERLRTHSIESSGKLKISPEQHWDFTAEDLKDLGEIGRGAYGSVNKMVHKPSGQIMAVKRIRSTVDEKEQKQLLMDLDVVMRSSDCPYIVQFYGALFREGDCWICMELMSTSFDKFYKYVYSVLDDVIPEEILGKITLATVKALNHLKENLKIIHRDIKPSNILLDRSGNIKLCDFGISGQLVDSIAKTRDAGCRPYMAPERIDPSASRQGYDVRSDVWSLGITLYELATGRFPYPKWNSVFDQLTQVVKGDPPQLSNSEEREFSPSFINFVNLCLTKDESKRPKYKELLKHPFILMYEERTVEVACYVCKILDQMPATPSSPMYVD
Kind of experiment: In vitro kinase activity (Millipore KinaseProfiler): MKK4. In kind it is biochemical. The settings on record: no head or unit printed. The protocol:
as §1, §2

A further experiment deals with T4, mTOR (Homo sapiens, UniProt P42345).
T4 construct: purchased Millipore (KinaseProfiler service)
Kind of experiment: In vitro kinase activity (Millipore KinaseProfiler): mTOR. In kind it is biochemical. The settings on record: no head or unit printed. The protocol: as §1, §2

Another experiment concerns the target T5, PDK1 (Homo sapiens, UniProt O15530).
T5 construct: purchased Millipore (KinaseProfiler service)
Kind of experiment: In vitro kinase activity (Millipore KinaseProfiler): PDK1. The settings on record: no head or unit printed. In kind it is biochemical. The protocol: as §1, §2

A further experiment concerns the target T6, PKA (Homo sapiens, UniProt P17612).
T6 construct: purchased Millipore (KinaseProfiler service)
Kind of experiment: In vitro kinase activity (Millipore KinaseProfiler): PKA. In kind it is biochemical. The settings on record: no head or unit printed. On the procedure: as §1, §2

A further experiment has as its target T7, PKCδ (Homo sapiens, UniProt Q05655).
T7 construct: purchased Millipore (KinaseProfiler service)
As to the kind of experiment: In vitro kinase activity (Millipore KinaseProfiler): PKCδ. In kind it is biochemical. The settings on record: no head or unit printed. The protocol:
as §1, §2

The target of a further experiment is T8, Plk3 (Homo sapiens, UniProt Q9H4B4).
T8 construct: purchased Millipore (KinaseProfiler service)
T8 sequence (Q9H4B4 whole entry, species assumed): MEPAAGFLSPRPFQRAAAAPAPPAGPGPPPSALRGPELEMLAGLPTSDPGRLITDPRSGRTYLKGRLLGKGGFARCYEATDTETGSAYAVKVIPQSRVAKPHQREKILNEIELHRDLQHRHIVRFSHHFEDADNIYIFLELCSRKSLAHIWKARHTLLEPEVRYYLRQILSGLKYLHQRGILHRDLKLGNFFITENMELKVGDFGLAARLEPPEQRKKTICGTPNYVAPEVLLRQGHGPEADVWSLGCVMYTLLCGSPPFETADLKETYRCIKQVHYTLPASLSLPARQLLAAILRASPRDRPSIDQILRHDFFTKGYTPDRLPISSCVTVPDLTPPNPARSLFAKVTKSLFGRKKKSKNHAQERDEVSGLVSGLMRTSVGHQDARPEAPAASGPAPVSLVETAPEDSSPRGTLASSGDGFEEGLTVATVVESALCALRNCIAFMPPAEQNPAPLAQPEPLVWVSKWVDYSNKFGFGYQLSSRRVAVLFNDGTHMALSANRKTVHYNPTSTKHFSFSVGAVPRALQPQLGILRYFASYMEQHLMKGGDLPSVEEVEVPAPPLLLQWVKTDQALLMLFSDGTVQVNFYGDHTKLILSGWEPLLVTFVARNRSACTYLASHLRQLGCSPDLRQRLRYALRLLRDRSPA
Kind of experiment: In vitro kinase activity (Millipore KinaseProfiler): Plk3. In kind it is biochemical. Particulars: no head or unit printed. On the procedure: as §1, §2

The target of a further experiment is T9, SAPK2a (Homo sapiens, UniProt Q16539).
T9 construct: purchased Millipore (KinaseProfiler service)
T9 sequence (Q16539 whole entry): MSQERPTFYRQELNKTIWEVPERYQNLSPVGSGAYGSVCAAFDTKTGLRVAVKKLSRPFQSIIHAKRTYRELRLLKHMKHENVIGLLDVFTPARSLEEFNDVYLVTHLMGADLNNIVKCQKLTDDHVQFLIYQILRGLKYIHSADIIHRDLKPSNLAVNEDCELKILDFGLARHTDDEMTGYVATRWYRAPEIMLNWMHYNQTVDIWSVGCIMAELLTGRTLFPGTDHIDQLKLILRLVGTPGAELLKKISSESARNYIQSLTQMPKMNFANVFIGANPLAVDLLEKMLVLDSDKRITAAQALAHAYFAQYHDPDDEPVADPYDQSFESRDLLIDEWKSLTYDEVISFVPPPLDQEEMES
As to the kind of experiment: In vitro kinase activity (Millipore KinaseProfiler): SAPK2a. The settings on record: no head or unit printed. In kind it is biochemical. The protocol:
as §1, §2

Another experiment addresses T10, Tie2 (Homo sapiens, UniProt Q02763).
T10 construct: purchased Millipore (KinaseProfiler service)
As to the kind of experiment: In vitro kinase activity (Millipore KinaseProfiler): Tie2. In kind it is biochemical. The settings on record: no head or unit printed. The protocol: as §1, §2

T5 sequence (O15530 whole entry): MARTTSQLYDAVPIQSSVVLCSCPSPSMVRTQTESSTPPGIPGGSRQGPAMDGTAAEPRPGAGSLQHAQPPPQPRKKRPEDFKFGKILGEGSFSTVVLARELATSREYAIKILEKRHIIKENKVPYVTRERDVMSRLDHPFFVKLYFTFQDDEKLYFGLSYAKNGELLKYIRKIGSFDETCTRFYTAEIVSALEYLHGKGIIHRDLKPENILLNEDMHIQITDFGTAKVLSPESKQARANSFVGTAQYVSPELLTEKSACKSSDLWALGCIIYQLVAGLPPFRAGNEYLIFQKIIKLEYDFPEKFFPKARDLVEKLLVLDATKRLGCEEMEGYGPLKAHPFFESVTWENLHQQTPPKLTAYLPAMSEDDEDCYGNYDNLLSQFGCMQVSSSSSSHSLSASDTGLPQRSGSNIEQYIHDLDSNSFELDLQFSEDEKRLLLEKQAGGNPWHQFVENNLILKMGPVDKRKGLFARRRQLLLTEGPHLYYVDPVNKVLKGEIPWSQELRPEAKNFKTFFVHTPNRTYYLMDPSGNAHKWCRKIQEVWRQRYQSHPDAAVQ
T7 sequence (Q05655 whole entry): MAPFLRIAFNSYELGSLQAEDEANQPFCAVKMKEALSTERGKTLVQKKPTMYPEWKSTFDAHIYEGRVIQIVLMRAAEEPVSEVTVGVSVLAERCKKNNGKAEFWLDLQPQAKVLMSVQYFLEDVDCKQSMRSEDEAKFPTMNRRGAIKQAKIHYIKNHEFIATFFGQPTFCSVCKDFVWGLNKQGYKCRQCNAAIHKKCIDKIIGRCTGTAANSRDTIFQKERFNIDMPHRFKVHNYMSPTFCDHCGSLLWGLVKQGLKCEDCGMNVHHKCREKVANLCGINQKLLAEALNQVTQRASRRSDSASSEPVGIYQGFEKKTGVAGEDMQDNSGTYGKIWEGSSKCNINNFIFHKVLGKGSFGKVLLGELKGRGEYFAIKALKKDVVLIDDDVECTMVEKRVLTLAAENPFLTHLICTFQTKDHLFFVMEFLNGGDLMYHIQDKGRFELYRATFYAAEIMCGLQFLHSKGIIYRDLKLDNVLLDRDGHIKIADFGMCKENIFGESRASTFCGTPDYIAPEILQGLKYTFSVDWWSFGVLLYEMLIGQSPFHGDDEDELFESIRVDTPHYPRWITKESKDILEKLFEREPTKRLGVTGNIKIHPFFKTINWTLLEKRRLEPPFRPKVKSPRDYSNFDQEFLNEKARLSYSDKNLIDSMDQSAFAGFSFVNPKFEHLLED
T10 sequence (Q02763 23-1124): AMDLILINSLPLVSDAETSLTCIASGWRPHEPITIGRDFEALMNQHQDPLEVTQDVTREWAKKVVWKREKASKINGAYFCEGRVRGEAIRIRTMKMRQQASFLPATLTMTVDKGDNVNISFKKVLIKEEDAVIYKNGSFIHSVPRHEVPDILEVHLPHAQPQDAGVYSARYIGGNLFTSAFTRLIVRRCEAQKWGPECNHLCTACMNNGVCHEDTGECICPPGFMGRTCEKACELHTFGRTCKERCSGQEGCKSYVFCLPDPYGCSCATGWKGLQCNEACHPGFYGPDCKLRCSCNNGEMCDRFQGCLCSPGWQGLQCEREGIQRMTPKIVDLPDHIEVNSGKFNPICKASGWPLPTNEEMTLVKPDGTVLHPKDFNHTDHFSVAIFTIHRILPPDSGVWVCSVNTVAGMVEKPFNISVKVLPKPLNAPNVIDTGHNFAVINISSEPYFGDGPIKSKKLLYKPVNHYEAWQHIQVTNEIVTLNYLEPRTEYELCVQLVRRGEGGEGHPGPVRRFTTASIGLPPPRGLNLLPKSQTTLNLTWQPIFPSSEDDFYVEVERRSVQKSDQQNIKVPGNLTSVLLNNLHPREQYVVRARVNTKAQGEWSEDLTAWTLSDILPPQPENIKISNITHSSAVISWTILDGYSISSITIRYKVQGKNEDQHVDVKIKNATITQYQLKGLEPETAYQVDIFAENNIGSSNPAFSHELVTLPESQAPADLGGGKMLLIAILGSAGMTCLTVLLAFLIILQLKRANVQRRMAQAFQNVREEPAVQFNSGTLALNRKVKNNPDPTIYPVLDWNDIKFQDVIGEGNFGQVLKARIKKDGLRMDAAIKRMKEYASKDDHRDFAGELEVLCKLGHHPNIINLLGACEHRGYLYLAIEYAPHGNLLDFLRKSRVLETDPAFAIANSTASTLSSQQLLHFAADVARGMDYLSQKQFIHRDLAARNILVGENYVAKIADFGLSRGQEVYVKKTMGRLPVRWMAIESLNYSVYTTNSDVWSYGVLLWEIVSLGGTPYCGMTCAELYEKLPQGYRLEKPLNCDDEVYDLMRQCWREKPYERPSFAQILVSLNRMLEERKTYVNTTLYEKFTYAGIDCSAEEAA

The term IC50 denotes the concentration needed to halve the response being measured. Low values mean inhibition by little substance, high ones a need for much substance. In turn, `CC(C)(C)c1ccc(S(=O)(=O)NCc2ccc(C(=O)Nc3cccnc3)cc2)cc1` [Example 38, 4-((4-tert-Butylphenylsulfonamido)methyl)-N-(pyridin-3-yl)benzamide] yielded an IC50 in the experiment on RCC4 [1] (Homo sapiens, RCC4, 96 h, XTT assay, four days) of less than 1000 nM. The “number of RCC4 cells compared to RCC4/VHL (XTT metabolic activity)” value in the experiment on RCC4 [1] (four days of treatment, concentration-dependent, FIG. 2A) was “significant decrease in the number of RCC4 cells”. Moreover, in the experiment with RCC4 [2] (3H-2-deoxyglucose, two days of treatment, 5 μM), the “glucose uptake in VHL-deficient RCC4 cells” value is given as “impaired glucose uptake”. Moreover, in the experiment with RCC4 [2] (increasing concentrations, FIG. 3C), the “concentration dependence of glucose uptake inhibition in RCC4” value is recorded as “dose-dependent manner”. At CHK1, this compound had a CHK1 kinase activity of 114. The GSK3α kinase activity at GSK3α was found to be 134. At MKK4, the MKK4 kinase activity is recorded as 128. Further, the mTOR kinase activity at mTOR is 101. Besides, the PDK1 kinase activity on PDK1 was determined as 105%. This compound also had a PKA kinase activity on PKA of 96. At PKCδ, this compound had a PKCδ kinase activity of 116. On Plk3, this compound returned a Plk3 kinase activity of 104. The SAPK2a kinase activity at SAPK2a came to 127. Further, on Tie2, the Tie2 kinase activity was found to be 111%.
